38 compounds from ChEMBL document CHEMBL3352306, “Synthesis and antitumor activity of feruloyl and caffeoyl derivatives” (Bioorg Med Chem Lett, 2014) can be followed below.

The IC50 is the concentration needed to halve the response being measured.

Some results are limits rather than exact numbers.

Holding throughout (type): functional, cell-based
Assay [1] has as its system SiHa. The assay can be described thus: Antitumor activity against human SiHa cells assessed as inhibition of cell growth by MTT assay.
Assay [2] is described as follows: Antitumor activity against human HL60 cells assessed as inhibition of cell growth by MTT assay. The note with it: HL-60. On the technique in general: Formazan colour is commonly taken as a measure of viable cells.
The subject of assay [3] is HeLa. Put plainly: Antitumor activity against human HeLa cells assessed as inhibition of cell growth by MTT assay.
Assay [4] concerns HepG2. The assay can be described thus: Antitumor activity against human HepG2 cells assessed as inhibition of cell growth by MTT assay.
The test system of assay [5] is BeWo. Put plainly: Antitumor activity against human Bewo cells assessed as inhibition of cell growth by MTT assay.
Assay [6] is described as follows: Antitumor activity against human SGC7901 cells assessed as inhibition of cell growth by MTT assay. The note with it: SGC-7901.

As for `CCCCCCCCCCCCCCCCCCOC(=O)/C=C/c1ccc(O)c(O)c1`, the IC50 is greater than 100 µM in assay [1]; 10.2 µM in assay [2]; greater than 100 µM in assay [3]; 4.95 µM in assay [4]; greater than 100 µM in assay [5]; 17.2 µM in assay [6].
On to `O=C(/C=C/c1ccc(O)c(O)c1)Oc1ccccc1`, for which the IC50 in assay [1] worked out at 52.3 µM; in assay [2] it was 10.8 µM; in assay [3] it was 29.8 µM; in assay [4], 50.8 µM; in assay [5], 30.7 µM; in assay [6], 90.3 µM.
As for `CCCCCCCCOC(=O)/C=C/c1ccc(O)c(O)c1`, the IC50 in assay [1] came out at 45.9 µM; in assay [2], 8.29 µM; in assay [3], 34.9 µM; in assay [4], 54.3 µM; in assay [5], 13.1 µM; in assay [6], 56 µM.
For the compound `O=C(/C=C/c1cc(O)c(O)c(Cl)c1)OCCc1ccccc1`, the figures for the IC50 in assay [2] and in assay [6] were 7.01 µM and 8.18 µM, respectively.
With `O=C(/C=C/c1ccc(O)c(O)c1)Oc1ccc2ccccc2c1`, the half-inhibitory concentration (IC50) in assay [1] was 39.5 µM; in assay [2], 3.4 µM; in assay [3] it was 8.04 µM; in assay [4], 14.8 µM; in assay [5] it was 0.36 µM; in assay [6], 44.8 µM.
With `CC(C)OC(=O)/C=C/c1ccc(O)c(O)c1`, the IC50 amounted to 48.2 µM in assay [1]; 11.8 µM in assay [2]; 30.1 µM in assay [3]; 91.6 µM in assay [4]; 5.9 µM in assay [5]; 97.7 µM in assay [6].
As for `CC1(C)C2CCC1(C)C(OC(=O)/C=C/c1cc(O)c(O)c(Br)c1)C2` (stereo unspecified), the IC50 in assay [1] was 29 µM; in assay [2], 15.2 µM; in assay [3], 22.7 µM; in assay [5], 20 µM.
On to `O=C(/C=C/c1ccc(O)c(O)c1)OC1CCCCC1`, for which the IC50 in assay [1] was determined as 51.5 µM; in assay [2], 8.32 µM; in assay [3], 23.9 µM; in assay [4] it was 45.5 µM; in assay [5] it was 2.75 µM; in assay [6], 95.5 µM.
Turning to `O=C(/C=C/c1ccc(O)c(O)c1)OCCc1ccccc1` [CAFFEIC ACID PHENETHYL ESTER], the 50% inhibitory concentration (IC50) in assay [1] turned out to be 66.9 µM; in assay [2], 16.6 µM; in assay [3] it was 38 µM; in assay [4] it was 40.9 µM; in assay [5], 2.96 µM; in assay [6], 14.3 µM.
On to `COc1cc(/C=C/C(=O)NC23CC4CC(CC(C4)C2)C3)ccc1O`, for which the IC50 in assay [1] was 67.6 µM; in assay [2] it was greater than 100 µM; in assay [3], greater than 100 µM; in assay [5] it was greater than 100 µM.
Regarding `CCCCOC(=O)/C=C/c1ccc(O)c(O)c1` [BUTYL CAFFEATE], the IC50 is 41 µM in assay [1]; 7.54 µM in assay [2]; 40.8 µM in assay [3]; greater than 100 µM in assay [4]; 5.42 µM in assay [5]; greater than 100 µM in assay [6].
Regarding `CC1(C)C2CCC1(C)C(OC(=O)/C=C/c1ccc(O)c(O)c1)C2` (stereo unspecified), the IC50 in assay [1] is 73.7 µM; in assay [2] it was 3.35 µM; in assay [3], 20.6 µM; in assay [4], 31.4 µM; in assay [5], 35.9 µM; in assay [6] it was 12 µM.
As for `O=C(/C=C/c1cc(O)c(O)c(Cl)c1)NC12CC3CC(CC(C3)C1)C2`, the IC50 in assay [1] came out at 18.9 µM; in assay [2], 35.6 µM; in assay [3], 50 µM; in assay [5], 68.4 µM.
In the case of `C=CCOC(=O)/C=C/c1ccc(O)c(O)c1`, the half-inhibitory concentration (IC50) is 30.7 µM in assay [1]; 11.5 µM in assay [2]; 67.2 µM in assay [3]; greater than 100 µM in assay [4]; 8.64 µM in assay [5]; 89.2 µM in assay [6].
As to `COc1c(O)ccc(/C=C/C(=O)NC23CC4CC(CC(C4)C2)C3)c1[N+](=O)[O-]`, the IC50 in assay [1] was determined as 38.9 µM; in assay [2] it was 73.2 µM; in assay [3] it was 91.3 µM; in assay [5] it was 26.7 µM.
Consider `C#CCOC(=O)/C=C/c1ccc(O)c(O)c1`, for which the IC50 in assay [1] was 39.1 µM; in assay [2], 12.3 µM; in assay [3] it was 19.2 µM; in assay [4], greater than 100 µM; in assay [5], 8.99 µM; in assay [6] it was greater than 100 µM.
Consider `COc1cc(/C=C/C(=O)NC23CC4CC(CC(C4)C2)C3)cc(Cl)c1O`, for which the 50% inhibitory concentration (IC50) was 34.8 µM in assay [1], 67.9 µM in assay [2], 98.4 µM in assay [3] and 44.5 µM in assay [5].
Consider `O=C(/C=C/c1cc(O)c(O)c(Br)c1)NC12CC3CC(CC(C3)C1)C2`, for which the IC50 in assay [1] is greater than 100 µM; in assay [2] it was greater than 100 µM; in assay [3] it was 33.2 µM; in assay [5], 60.9 µM.
In the case of `O=C(/C=C/c1ccc(O)c(O)c1)NC12CC3CC(CC(C3)C1)C2`, the IC50 in assay [1] was 41.3 µM; in assay [2], 8.18 µM; in assay [3], 10.2 µM; in assay [4], 30.1 µM; in assay [5], 1.09 µM; in assay [6], 29.8 µM.
In the case of `CCC(C)OC(=O)/C=C/c1ccc(O)c(O)c1` (stereo unspecified), the concentration for half-maximal inhibition (IC50) in assay [1] was 33.8 µM; in assay [2], 12.5 µM; in assay [3], 13.8 µM; in assay [4] it was 95.8 µM; in assay [5], 3.18 µM; in assay [6] it was greater than 100 µM.
For the compound `O=C(/C=C/c1ccc(O)c(O)c1)OCCCCc1ccccc1`, the IC50 stood at 88.7 µM in assay [1]; 11.2 µM in assay [2]; 31.6 µM in assay [3]; 48.4 µM in assay [4]; 5.8 µM in assay [5]; 40.1 µM in assay [6].
Regarding `CCCCCCCOC(=O)/C=C/c1ccc(O)c(O)c1`, the IC50 in assay [1] was found to be 35.8 µM; in assay [2], 4.46 µM; in assay [3], 21.5 µM; in assay [4] it was 44.7 µM; in assay [5] it was 2.77 µM; in assay [6], 34 µM.
`COc1cccc2c1C(=O)c1c(O)c3c(c(O)c1C2=O)C[C@@](O)(C(=O)CO)C[C@@H]3O[C@H]1C[C@H](N)[C@H](O)[C@H](C)O1` [DOXORUBICIN]: the IC50 in assay [1] was 2.04 µM; in assay [2], 0.42 µM; in assay [3], 0.33 µM; in assay [5], 1.07 µM.
With `O=C(/C=C/c1ccc(O)c(O)c1)OCc1ccccc1` [BENZYL CAFFEATE], the IC50 is 74.3 µM in assay [1]; 8 µM in assay [2]; 23.5 µM in assay [3]; 85.6 µM in assay [4]; 28.2 µM in assay [5]; 70.5 µM in assay [6].
As to `COc1cc(/C=C/C(=O)NC23CC4CC(CC(C4)C2)C3)cc([N+](=O)[O-])c1O`, the IC50 in assay [1] was determined as 59.5 µM; in assay [2], 18.7 µM; in assay [3], 66.8 µM; in assay [5] it was 68.2 µM.
The like results for `COc1cc(/C=C/C(=O)OC23CC4CC(CC(C4)C2)C3)ccc1O` were, in that order, greater than 100 µM, 92.4 µM, 59.9 µM and 70 µM.
With `O=C(/C=C/c1cc(O)c(O)c(Br)c1)OCCc1ccccc1`, the IC50 in assay [1] came to 28.5 µM; in assay [2] it was 8.49 µM; in assay [3] it was 17.5 µM; in assay [4], 4.44 µM; in assay [5], 8.24 µM; in assay [6] it was 6.75 µM.
As for `CC1(C)C2CCC1(C)C(OC(=O)/C=C/c1ccc(O)c(O)c1[N+](=O)[O-])C2` (stereo unspecified), the concentration for half-maximal inhibition (IC50) in assay [1] is 51.8 µM; in assay [2] it was 52.9 µM; in assay [3], 13.9 µM; in assay [5], 9.31 µM.
On to `COc1cc(/C=C/C(=O)NC23CC4CC(CC(C4)C2)C3)cc(Br)c1O`, for which the IC50 in assay [1] is 82.4 µM; in assay [2], 49.8 µM; in assay [3], greater than 100 µM; in assay [5], 41.4 µM.
Consider `O=C(/C=C/c1ccc(O)c(O)c1)O[C@H]1C[C@@](O)(C(=O)O)C[C@H](O)[C@@H]1O`, for which the IC50 in assay [2], in assay [4] and in assay [6] was greater than 100 µM in each case.
Turning to `CC(C)(C)OC(=O)/C=C/c1ccc(O)c(O)c1`, the IC50 in assay [1] was 42 µM; in assay [2], 7.92 µM; in assay [3], 16.7 µM; in assay [4], 69.7 µM; in assay [5], 3.47 µM; in assay [6] it was 80 µM.
For `CCCCCCC(C)OC(=O)/C=C/c1ccc(O)c(O)c1` (stereo unspecified), the IC50 in assay [1] is 49.9 µM; in assay [2], 5.1 µM; in assay [3], 38.2 µM; in assay [4], 24.1 µM; in assay [5] it was 0.41 µM; in assay [6], 17.4 µM.
Take `CCOC(=O)/C=C/c1ccc(O)c(O)c1` [ETHYL CAFFEATE]: the IC50 in assay [1] was 34.1 µM; in assay [2] it was 8.94 µM; in assay [3], 23.3 µM; in assay [4], 64 µM; in assay [5] it was 6.2 µM; in assay [6] it was greater than 100 µM.
With `CC(C)(COC(=O)/C=C/c1ccc(O)c(O)c1)[N+](=O)[O-]`, the 50% inhibitory concentration (IC50) was 30.5 µM in assay [1]; 9.32 µM in assay [2]; 23.6 µM in assay [3]; 38.1 µM in assay [4]; 7.26 µM in assay [5]; greater than 100 µM in assay [6].
For `CCCOC(=O)/C=C/c1ccc(O)c(O)c1`, the concentration for half-maximal inhibition (IC50) in assay [1] was 44.2 µM; in assay [2] it was 11.8 µM; in assay [3], 28.6 µM; in assay [4] it was greater than 100 µM; in assay [5], 5.18 µM; in assay [6] it was greater than 100 µM.
Take `CC1(C)C2CCC1(C)C(OC(=O)/C=C/c1cc(O)c(O)c(Cl)c1)C2` (stereo unspecified): the IC50 was found to be 33.8 µM in assay [1]; 18.6 µM in assay [2]; 38.7 µM in assay [3]; 51.9 µM in assay [5]; 69.5 µM in assay [6].
On to `COC(=O)/C=C/c1ccc(O)c(O)c1` [METHYLCAFFEATE], for which the IC50 in assay [1] is 60.3 µM; in assay [2] it was 12.3 µM; in assay [3], 52.5 µM; in assay [4] it was 81.5 µM; in assay [5], 17.3 µM; in assay [6] it was greater than 100 µM.
In the case of `O=C(/C=C/c1ccc(O)c(O)c1[N+](=O)[O-])OCCc1ccccc1`, the IC50 was 17.2 µM in assay [1], 18.2 µM in assay [2], 10.9 µM in assay [3] and 4.38 µM in assay [5].
